The text below walks through data of PMC7320011, “Rationally designed ruthenium complexes for 1- and 2-photon photodynamic therapy” (Nature Communications, 2020).

The term pIC50 denotes the negative decadic logarithm of the IC50, by convention in mol/L.

Series [1] is described as follows: Two-photon absorption cross section. Format: physicochemical. The settings on record: dichloromethane. As to the method: The two-photon absorption cross section spectra of the sample was determined upon direction comparison to Rhodamine B. The sample was irradiated with an OpoletteTM 355II (pulse width ≤ 100 fs, 80 MHz repetition rate, Spectra Physics Inc.) laser. The experimental excitation and detection conditions were conducted with negligible reabsorption processes, which could affect two-photon absorption measurements. The quadratic dependence of the two-photon induced luminescence intensity on the excitation power was verified at an excitation wavelength of 800 nm. The two-photon absorption cross section was calculated using the following equation:1 σ2,sample=σ2,reference×Φreference×creference×Isample×nsample/Φsample×csample×Ireference×nreference,
σ2 = two-photon cross section, Φ = luminescence quantum yield, c = concentration, I = integrated luminescence intensity, n = refractive index

Series [2] can be described thus: Emission and luminescence quantum yield. Format: physicochemical. The settings on record: acetonitrile. As to the method:
The absorption spectra of the sample was measured with a SpectraMax M2 Spectrometer (Molecular Devices). For the measurements of the emission, the sample was irradiated at 355 nm with a NT342B Nd-YAG pumped optical parametric oscillator (Ekspla). The emission was focused at right angle to the excitation pathway and directed to a Princeton Instruments Acton SP-2300i monochromator. The signal was detected with a XPI-Max 4 CCD camera (Princeton Instruments).
The sample was prepared in an acetonitrile solution with an absorption of 0.1 at 355 nm. The sample was irradiated at 355 nm with a NT342B Nd-YAG pumped optical parametric oscillator (Ekspla). The emission was focused at right angle to the excitation pathway and directed to a Princeton Instruments Acton SP-2300i monochromator. The signal was detected with a XPI-Max 4 CCD camera (Princeton Instruments). The luminescence quantum yields were determined by comparison with the reference [Ru(2,2′-bipyridine)3]Cl2 in acetonitrile (Φem = 5.9%)[58] applying the following formula:2 Φem,sample=Φem,reference×Freference/Fsample×Isample/Ireference×nsample/nreference^2, 3 F=1−10^-A. Φem = luminescence quantum yield, F = fraction of light absorbed, I = integrated emission intensities, n = refractive index, A = absorbance of the sample at irradiation wavelength.

Another series is described as follows: Excited state lifetime. The format is physicochemical. As to the method: The sample was prepared in an air saturated as well as a degassed acetonitrile solution with an absorption of 0.2 at 355 nm. The sample was irradiated at 355 nm with a NT342B Nd-YAG pumped optical parametric oscillator (Ekspla). The emission was focused at right angle to the excitation pathway and directed to a Princeton Instruments Acton SP-2300i monochromator. The signal was detected with a R928 photomultiplier tube (Hamamatsu).

Series [3] can be described thus: Singlet oxygen quantum yield, direct evaluation (1O2 phosphorescence). Format: physicochemical. As for the experimental part:
Direct evaluation: the sample was prepared in an air-saturated acetonitrile or deuterated water solution with an absorption of 0.2 at 450 nm. The sample was irradiated at 450 nm with a mounted M450LP1 LED (Thorlabs), whose light was focused with aspheric condenser lenses. Using a T-Cube LED Driver (Thorlabs), the intensity of the irradiation was varied and monitored with an optical power and energy meter. The emission was focused at right angle to the excitation pathway and directed to a Princeton Instruments Acton SP-2300i monochromator. To cut off light at wavelengths shorter than 850 nm, a longpass glass filter was placed in front of the monochromator entrance slit. The signal was detected with an EO-817L IR-sensitive liquid-nitrogen cooled germanium diode detector (North Coast Scientific Corp.). The luminescence signal, centered at 1270 nm, was measured from 1100 to 1400 nm. The obtained data were analyzed upon plotting the integrated luminescence peaks against the percentage of the irradiation intensity. The slope of the linear regression was calculated and compared with the reference Rose Bengal (Φ = 76%)[59]. The absorption of the sample was corrected with an absorption correction factor. The singlet oxygen quantum yields were calculated using the following formula:4 Φsample=Φreference×Ssample/Sreference×Ireference/Isample, 5 I=I0×1−10^-A.
Φ = singlet oxygen quantum yield, S = slope of the linear regression of the plot of the areas of the singlet oxygen luminescence peaks against the irradiation intensity, I = absorption correction factor, I0 = light intensity of the irradiation source, and A = absorption of the sample at irradiation wavelength.

Series [4] in a line: Photostability (absorption spectra upon irradiation). The format is physicochemical. Conditions: 450 nm, 0 to 10 min (13.2 J cm^−2), air-saturated acetonitrile.
A short description of series [5]: Distribution coefficient (shake-flask, octanol/PBS). Format: physicochemical. The settings on record: ICP-MS. As to the method:
Using the “shake-flask” method, the distribution coefficient between the PBS and octanol phase of the sample was determined. The PBS and octanol phases were previously saturated in each other. The sample was dissolved in the phase, which is dissolving best the compound. This solution was added to an equal volume of the other phase and mixed at 190 rpm overnight with a sample mixer. Following this, the solutions were equilibrated for 4 h. The phases were carefully separated from each other. The amount of the sample in each phase was determined by ICP-MS. The evaluation was repeated three times and the ratio between the organic and aqueous phase determined.

For series [6], the system named is human cervical carcinoma (HeLa) cells. Kind of series: (Photo-)cytotoxicity on 2D cell monolayers, HeLa. The settings on record: for pIC50: 1-3 as chloride salts. Format: cell-based.
In series [7] the test system is noncancerous retinal pigment epithelium (RPE-1) cells.
For series [8], the system named is mouse colon carcinoma (CT-26) cells.
Series [9] has as its system human glioblastoma astrocytoma (U373) cells.
Protocol: (§1) A total of 4 × 10^3 cells were seeded on 96-well plates and allowed to adhere overnight. The cells were treated with increasing concentrations of the sample diluted in cell media achieving a total volume of 200 μL. The cells were incubated with the sample for 8 h and, after this time, the medium refreshed. To study the phototoxic effect of the sample, the cells were exposed to 480 nm (spectral half-width: 20 nm, 10 min, 5.2 mW cm^−2, 3.1 J cm^−2) or 540 nm (spectral half-width: 30 nm, 40 min, 4.0 mW cm^−2, 9.5 J cm^−2) light using an Atlas Photonics LUMOS BIO irradiator. To study the dark cytotoxicity of the sample, the cells were not irradiated and the medium exchanged. The cells were grown for an additional 40 h at 37 °C. After this time, the medium was replaced with fresh medium containing resazurin with a final concentration of 0.2 mg mL^−1. The cells were incubated for 4 h and the amount of the fluorescent product resorufin determined (λex = 540 nm, λem = 590 nm) with a SpectraMax M2 Microplate Reader (Molecular Devices). The obtained data was analyzed with the GraphPad Prism software.
Series [10] shares this test system. Kind of series: (Photo-)cytotoxicity on 2D cell monolayers, U373.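 As to all read-outs here: Resazurin-to-resorufin fluorescence viability readout, 8 h compound exposure then medium change, light dose 3.1 J cm^−2 at 480 nm or 9.5 J cm^−2 at 540 nm, analysed 40 h later.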 Conditions: for pIC50: 1-3 as chloride salts.
Protocol: as §1
Series [11] has as its system mouse colon carcinoma (CT-26) cells. Kind of series: (Photo-)cytotoxicity on 2D cell monolayers, CT-26. The settings on record: for pIC50: 1-3 as chloride salts.

SMILES strings stand for the structures. pIC50: −log10 of the molar value. Read-outs that look alike come from different tables or passages of the source. Where only a bound is given, the exact number is not on record here.

Regarding `CN(C)c1ccc(/C=C/c2ccnc(-c3cc(/C=C/c4ccc(N(C)C)cc4)ccn3)c2)cc1.F[P-](F)(F)(F)(F)F.F[P-](F)(F)(F)(F)F.[Ru+2].c1ccc(-c2ccccn2)nc1.c1ccc(-c2ccccn2)nc1` [compound 6, [Ru(2,2′-bipyridine)2((E,E′)-4,4′-Bis[p-(N,N-dimethylamino)styryl]-2,2′-bipyridine)][PF6]2], the “σ2, 2P absorption cross section” value in series [1] is 349 GM. Also, the “Φem, luminescence quantum yield” value in [2] is reported as 0.5%. Moreover, the “λem, emission maximum” value in series [2] is listed as 697 nm. Moreover, in “Excited state lifetime” (air saturated acetonitrile), the “τ air, excited state lifetime” value came out at 54 ns. In addition, in the series “Excited state lifetime” (degassed acetonitrile), the “τ degassed, excited state lifetime” value was found to be 405 ns. Moreover, the “Singlet oxygen quantum yield, Direct 450 nm CH3CN” value in series [3] amounted to 46%. For the same compound, the “photostability (change of absorption spectra upon irradiation)” value in [4] is “small changes in the absorption spectra”. The “logD (octanol/PBS)” value in [5] is “+0.7 ± 0.2”. Also, the pIC50 in [6] (480 nm, read-out: IC50 480 nm (10 min, 3.1 J cm-2)) is 5.28; in series [6] (540 nm, read-out: IC50 540 nm (40 min, 9.5 J cm-2)), 5.24; in [6] (dark, read-out: IC50 dark), under 4.00; in series [7] it was 5.14; in [8], 5.62; in [9], 4.97. The pIC50 in series [10] (read-out: IC50 480 nm (10 min, 3.1 J cm-2), U373, 480 nm) was 5.08; in series [10] (read-out: IC50 dark, U373, dark), under 4.00; in [11] (read-out: IC50 540 nm (40 min, 9.5 J cm-2), CT-26, 540 nm) it was 5.51; in series [11] (read-out: IC50 dark, CT-26, dark), under 4.00. The “PI (480 nm)” value in [6] (dark vs 480 nm) is reported as over 18.9; in [10] (U373, dark vs 480 nm) it was over 12.0; in series [11] (CT-26, dark vs 480 nm), over 41.7. In addition, the “PI (540 nm)” value in series [6] (dark vs 540 nm) was over 17.2; in series [10] (U373, dark vs 540 nm), over 9.3; in series [11] (CT-26, dark vs 540 nm), over 32.3.
